Laboratory results from the NIST ThermoML archive (doi:10.1016/j.tca.2016.08.006).
Values joined by “and” are separate entries in the source; they are usually repeats but may differ in a detail not shown here. Equal values may be shown once. ± gives the expanded uncertainty stated by the source.

Key:
[1] = 101.33 kPa, Crystal, Vacuum adiabatic calorimetry
[2] = molar heat capacity at constant pressure; conditions: 101.33 kPa, Crystal, Vacuum adiabatic calorimetry

[S-2].[Zn+2] [zinc sulfide]
Conditions	molar entropy, [1] [J/K/mol]	molar heat capacity at constant pressure, [2]
1 K	3.1e-05	0.000119 J/K/mol
2 K	0.00031	0.000958 J/K/mol
4 K	0.002561	0.007765 ± 0.01 J/K/mol
6 K	0.00879 ± 0.015	0.02685 ± 0.01 J/K/mol
8 K	0.0213 ± 0.015	0.06618 ± 0.011 J/K/mol
10 K	0.043 ± 0.015	0.1376 ± 0.011 J/K/mol
12 K	0.078 ± 0.016	0.2601 ± 0.012 J/K/mol
13.23 K	–	0.1984 ± 0.0097 J/K/mol
14 K	0.1317 ± 0.016	0.4569 ± 0.013 J/K/mol
16 K	0.2106 ± 0.017	0.7475 ± 0.015 J/K/mol
16.01 K	–	0.5445 ± 0.017 J/K/mol
17.97 K	–	1.025 ± 0.028 J/K/mol
18 K	0.3203 ± 0.018	1.14 ± 0.017 J/K/mol
19.61 K	–	1.553 ± 0.04 J/K/mol
20 K	0.4649 ± 0.019	1.628 ± 0.02 J/K/mol
21.54 K	–	2.093 ± 0.053 J/K/mol
23.46 K	–	2.68 ± 0.067 J/K/mol
25 K	0.987 ± 0.022	3.17 ± 0.025 J/K/mol
25.99 K	–	3.508 ± 0.086 J/K/mol
28.89 K	–	4.52 ± 0.11 J/K/mol
30 K	1.72 ± 0.065	4.941 ± 0.05 J/K/mol
31.66 K	–	5.487 ± 0.14 J/K/mol
34.78 K	–	6.6 ± 0.16 J/K/mol
35 K	2.617 ± 0.068	6.734 ± 0.054 J/K/mol
37.93 K	–	7.702 ± 0.19 J/K/mol
40 K	3.629 ± 0.071	8.454 ± 0.057 J/K/mol
41.05 K	–	8.761 ± 0.07 J/K/mol
44.22 K	–	9.788 ± 0.076 J/K/mol
45 K	4.72 ± 0.074	10.08 ± 0.06 J/K/mol
47.06 K	–	10.71 ± 0.081 J/K/mol
50 K	5.863 ± 0.078	11.63 ± 0.064 J/K/mol
51.43 K	–	12.16 ± 0.09 J/K/mol
53.49 K	–	12.83 ± 0.09 J/K/mol
55 K	7.041 ± 0.081	13.11 ± 0.066 J/K/mol
55.51 K	–	13.31 ± 0.1 J/K/mol
57.5 K	–	14 ± 0.1 J/K/mol
59.41 K	–	14.51 ± 0.11 J/K/mol
60 K	8.244 ± 0.085	14.56 ± 0.069 J/K/mol
61.72 K	–	15.17 ± 0.11 J/K/mol
64.45 K	–	15.93 ± 0.11 J/K/mol
65 K	9.466 ± 0.089	15.99 ± 0.072 J/K/mol
67.18 K	–	16.76 ± 0.12 J/K/mol
69.7 K	–	17.39 ± 0.12 J/K/mol
70 K	10.7 ± 0.09	17.39 ± 0.075 J/K/mol
72.52 K	–	18.2 ± 0.13 J/K/mol
75 K	11.95 ± 0.1	18.77 ± 0.078 J/K/mol
75.26 K	–	18.97 ± 0.13 J/K/mol
77.99 K	–	19.74 ± 0.14 J/K/mol
80 K	13.2 ± 0.1	20.13 ± 0.08 J/K/mol
80.73 K	–	20.47 ± 0.14 J/K/mol
83.59 K	–	21.24 ± 0.15 J/K/mol
85 K	14.47 ± 0.1	21.46 ± 0.08 J/K/mol
86.48 K	–	22.17 ± 0.15 J/K/mol
90 K	15.73 ± 0.32	22.77 ± 0.22 J/K/mol
91.62 K	–	23.27 ± 0.22 J/K/mol
95 K	16.99 ± 0.33	24.03 ± 0.22 J/K/mol
95.13 K	–	24.19 ± 0.22 J/K/mol
98.85 K	–	25.12 ± 0.23 J/K/mol
100 K	18.26 ± 0.33	25.25 ± 0.23 J/K/mol
102.42 K	–	26.14 ± 0.23 J/K/mol
106.06 K	–	26.79 ± 0.23 J/K/mol
109.93 K	–	27.68 ± 0.24 J/K/mol
110 K	20.77 ± 0.33	27.55 ± 0.23 J/K/mol
113.87 K	–	28.52 ± 0.24 J/K/mol
117.79 K	–	29.35 ± 0.25 J/K/mol
120 K	23.26 ± 0.33	29.66 ± 0.23 J/K/mol
121.86 K	–	30.17 ± 0.25 J/K/mol
125.61 K	–	30.87 ± 0.26 J/K/mol
129.43 K	–	31.59 ± 0.26 J/K/mol
130 K	25.71 ± 0.34	31.58 ± 0.23 J/K/mol
133.29 K	–	32.28 ± 0.26 J/K/mol
137.15 K	–	32.9 ± 0.27 J/K/mol
140 K	28.12 ± 0.34	33.3 ± 0.23 J/K/mol
141.04 K	–	33.52 ± 0.27 J/K/mol
144.93 K	–	34.17 ± 0.27 J/K/mol
149.88 K	–	35.06 ± 0.28 J/K/mol
150 K	30.47 ± 0.35	34.85 ± 0.23 J/K/mol
155.67 K	–	35.74 ± 0.21 J/K/mol
159.17 K	–	36.12 ± 0.21 J/K/mol
160 K	32.76 ± 0.35	36.24 ± 0.24 J/K/mol
164 K	–	36.77 ± 0.21 J/K/mol
168.93 K	–	37.35 ± 0.21 J/K/mol
170 K	35 ± 0.35	37.49 ± 0.24 J/K/mol
173.91 K	–	37.96 ± 0.21 J/K/mol
178.77 K	–	38.48 ± 0.21 J/K/mol
180 K	37.17 ± 0.36	38.6 ± 0.24 J/K/mol
184.05 K	–	38.9 ± 0.21 J/K/mol
189.4 K	–	39.43 ± 0.22 J/K/mol
190 K	39.29 ± 0.36	39.6 ± 0.24 J/K/mol
194.4 K	–	39.95 ± 0.22 J/K/mol
199.39 K	–	40.39 ± 0.22 J/K/mol
200 K	41.34 ± 0.36	40.5 ± 0.24 J/K/mol
204.53 K	–	40.77 ± 0.22 J/K/mol
209.77 K	–	41.2 ± 0.22 J/K/mol
210 K	43.34 ± 0.37	41.32 ± 0.24 J/K/mol
214.65 K	–	41.55 ± 0.22 J/K/mol
219.66 K	–	41.93 ± 0.22 J/K/mol
220 K	45.28 ± 0.37	42.05 ± 0.24 J/K/mol
224.69 K	–	42.27 ± 0.22 J/K/mol
230 K	47.16 ± 0.37	42.62 ± 0.22 J/K/mol and 42.72 ± 0.24 J/K/mol
235.27 K	–	42.91 ± 0.23 J/K/mol
240 K	48.99 ± 0.37	43.32 ± 0.24 J/K/mol
240.27 K	–	43.24 ± 0.23 J/K/mol
245.33 K	–	43.69 ± 0.23 J/K/mol
250 K	50.77 ± 0.38	43.88 ± 0.24 J/K/mol
250.45 K	–	43.78 ± 0.23 J/K/mol
258.21 K	–	44.25 ± 0.23 J/K/mol
260 K	52.5 ± 0.38	44.38 ± 0.24 J/K/mol
263.65 K	–	44.4 ± 0.23 J/K/mol
269.02 K	–	44.71 ± 0.23 J/K/mol
270 K	54.19 ± 0.38	44.84 ± 0.24 J/K/mol
274.56 K	–	44.99 ± 0.23 J/K/mol
280 K	55.83 ± 0.38	45.27 ± 0.25 J/K/mol
280.13 K	–	45.24 ± 0.23 J/K/mol
285.72 K	–	45.48 ± 0.23 J/K/mol
290 K	57.42 ± 0.39	45.66 ± 0.25 J/K/mol
291.19 K	–	45.73 ± 0.23 J/K/mol
297.09 K	–	45.7 ± 0.23 J/K/mol
300 K	58.98 ± 0.39	46.03 ± 0.25 J/K/mol
304.72 K	–	46.14 ± 0.23 J/K/mol
310 K	60.49 ± 0.39	46.36 ± 0.25 J/K/mol
312.85 K	–	46.5 ± 0.24 J/K/mol
320 K	61.97 ± 0.39	46.68 ± 0.25 J/K/mol
